{
  "source": "patent US20100267561A1",
  "about": "“HERBICIDAL PYRIDAZINONE DERIVATIVES” (priority 2007, published 2010)",
  "format_in_all_cases": "in vivo",
  "key": {"[1]": {"tested_on": "wheat (Triticum aestivum)", "experiment": "Test A pre-/postemergence plant response", "method_in_brief": "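Soil: loam blended with sand. Formulation: non-phytotoxic solvent mixture plus surfactant, applied as preemergence directed soil spray and as postemergence spray. Scoring: visual, 0 no effect to 100 complete control, roughly 10 days post-treatment in greenhouse.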"}, "[2]": {"tested_on": "pigweed (Amaranthus retroflexus)", "experiment": "Test B pre-/postemergence plant response", "conditions": "for Pigweed plant response rating: 8 g ai/ha", "method_in_brief": "(§1)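 Visual scoring from 0 (no effect) to 100 (complete control) against untreated controls was done 13 to 15 days after greenhouse treatment. Chemicals were formulated in a surfactant-containing non-phytotoxic solvent and applied to soil preemergence or to 1- to 4-leaf (2-18 cm) plants postemergence.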"}, "[3]": {"tested_on": "eastern black (E.B.) nightshade (Solanum ptycanthum)", "experiment": "Test B pre-/postemergence plant response", "conditions": "Preemergence", "method_in_brief": "as §1"}, "soybean (Glycine max)": {"tested_on": "soybean (Glycine max)", "experiment": "Test B pre-/postemergence plant response", "method_in_brief": "as §1"}, "[4]": {"tested_on": "Italian ryegrass (Lolium multiflorum)", "experiment": "Test B pre-/postemergence plant response", "conditions": "for Ryegrass, Italian plant response rating: 8 g ai/ha", "method_in_brief": "as §1"}, "[5]": {"tested_on": "yellow nutsedge (Cyperus esculentus)", "experiment": "Test B pre-/postemergence plant response", "conditions": "for Nutsedge, Yellow plant response rating: 8 g ai/ha", "method_in_brief": "as §1"}, "[6]": {"tested_on": "goosegrass (Eleusine indica)", "experiment": "Test B pre-/postemergence plant response", "conditions": "for Goosegrass plant response rating: 8 g ai/ha", "method_in_brief": "as §1"}, "kochia (Kochia scoparia)": {"tested_on": "kochia (Kochia scoparia)", "experiment": "Test B pre-/postemergence plant response", "conditions": "for Plant response rating, Kochia: Postemergence", "method_in_brief": "as §1"}, "[7]": {"tested_on": "woolly cupgrass (Eriochloa villosa)", "experiment": "Test B pre-/postemergence plant response", "conditions": "for Cupgrass, Woolly plant response rating: 8 g ai/ha", "method_in_brief": "as §1"}, "[8]": {"tested_on": "cocklebur (Xanthium strumarium)", "experiment": "Test B pre-/postemergence plant response", "conditions": "for Cocklebur plant response rating: 8 g ai/ha", "method_in_brief": "as §1"}, "[9]": {"tested_on": "common ragweed (Ambrosia elation)", "experiment": "Test B pre-/postemergence plant response", "conditions": "for Ragweed plant response rating: 8 g ai/ha", "method_in_brief": "as §1"}, "[10]": {"tested_on": "Russian thistle (Salsola iberica)", "experiment": "Test B pre-/postemergence plant response", "conditions": "Preemergence", "method_in_brief": "as §1"}, "[11]": {"conditions": "Postemergence, 16 g ai/ha, scale 0 to 100"}, "[12]": {"conditions": "Postemergence, 31 g ai/ha, scale 0 to 100, 0 no effect, 100 complete control"}, "[13]": {"conditions": "Postemergence, 62 g ai/ha, scale 0 to 100, 0 no effect, 100 complete control"}, "[14]": {"conditions": "Preemergence, 16 g ai/ha, scale 0 to 100 (0 no effect, 100 complete control)"}, "[15]": {"conditions": "Preemergence, 31 g ai/ha, 0 to 100 scale, 0 no effect, 100 complete control"}, "[16]": {"conditions": "Preemergence, 62 g ai/ha, scale 0 to 100"}, "[17]": {"conditions": "16 g ai/ha, scale 0 to 100 (0 no effect, 100 complete control)"}, "[18]": {"conditions": "31 g ai/ha, 0 to 100 scale, 0 no effect, 100 complete control"}, "[19]": {"conditions": "8 g ai/ha, postemergence, 0-100 scale"}},
  "data": [
    {"smiles": "Cn1ncc(O)c(-c2nn(-c3ccc(Cl)cc3)cc2Cl)c1=O", "note": "[Compound 28]", "values": [
      {"measurement": "Plant response rating, Wheat", "setting": "[1]; Postemergence, 125 g ai/ha, 0 to 100 scale, 0 no effect, 100 complete control", "value": 50},
      {"measurement": "Plant response rating, Wheat", "setting": "[1]; Postemergence, 500 g ai/ha, 0 to 100 scale, 0 no effect, 100 complete control", "value": 70},
      {"measurement": "Plant response rating, Wheat", "setting": "[1]; Preemergence, 125 g ai/ha, 0 to 100 scale (0 no effect, 100 complete control)", "value": 70},
      {"measurement": "Plant response rating, Wheat", "setting": "[1]; Preemergence, 500 g ai/ha, 0 to 100 scale (0 no effect, 100 complete control)", "value": 100},
      {"measurement": "Pigweed plant response rating", "setting": "[2]; postemergence, 0-100 scale", "value": 0},
      {"measurement": "Plant response rating, Pigweed", "setting": "[2]; [11]", "value": 0},
      {"measurement": "Plant response rating, Pigweed", "setting": "[2]; [12]", "value": 0},
      {"measurement": "Plant response rating, Pigweed", "setting": "[2]; [13]", "value": 0},
      {"measurement": "Plant response rating, Pigweed", "setting": "[2]; [14]", "value": 0},
      {"measurement": "Plant response rating, Pigweed", "setting": "[2]; [15]", "value": 0},
      {"measurement": "Plant response rating, Pigweed", "setting": "[2]; [16]", "value": 0},
      {"measurement": "Pigweed plant response rating", "setting": "[2]; Preemergence, scale 0 to 100", "value": 0},
      {"measurement": "Plant response rating, Nightshade, E. B.", "setting": "[3]; [17]", "value": 0},
      {"measurement": "Plant response rating, Nightshade, E. B.", "setting": "[3]; [18]", "value": 0},
      {"measurement": "Plant response rating, Nightshade, E. B.", "setting": "[3]; 62 g ai/ha, scale 0 to 100", "value": 0},
      {"measurement": "Nightshade, E. B. plant response rating", "setting": "[3]; 8 g ai/ha, scale 0 to 100", "value": 0},
      {"measurement": "Soybean plant response rating", "setting": "soybean (Glycine max); [19]", "value": 0},
      {"measurement": "Plant response rating, Soybean", "setting": "soybean (Glycine max); [11]", "value": 0},
      {"measurement": "Plant response rating, Soybean", "setting": "soybean (Glycine max); [13]", "value": 20},
      {"measurement": "Plant response rating, Soybean", "setting": "soybean (Glycine max); [15]", "value": 0},
      {"measurement": "Plant response rating, Soybean", "setting": "soybean (Glycine max); [16]", "value": 0},
      {"measurement": "Ryegrass, Italian plant response rating", "setting": "[4]; postemergence, 0-100 scale", "value": 40},
      {"measurement": "Plant response rating, Ryegrass, Italian", "setting": "[4]; [11]", "value": 55},
      {"measurement": "Plant response rating, Ryegrass, Italian", "setting": "[4]; [12]", "value": 55},
      {"measurement": "Plant response rating, Ryegrass, Italian", "setting": "[4]; [13]", "value": 98},
      {"measurement": "Plant response rating, Ryegrass, Italian", "setting": "[4]; [14]", "value": 80},
      {"measurement": "Plant response rating, Ryegrass, Italian", "setting": "[4]; [15]", "value": 100},
      {"measurement": "Plant response rating, Ryegrass, Italian", "setting": "[4]; [16]", "value": 100},
      {"measurement": "Ryegrass, Italian plant response rating", "setting": "[4]; Preemergence, scale 0 to 100", "value": 0},
      {"measurement": "Nutsedge, Yellow plant response rating", "setting": "[5]; postemergence, 0-100 scale", "value": 0},
      {"measurement": "Plant response rating, Nutsedge, Yellow", "setting": "[5]; [11]", "value": 0},
      {"measurement": "Plant response rating, Nutsedge, Yellow", "setting": "[5]; [12]", "value": 0},
      {"measurement": "Plant response rating, Nutsedge, Yellow", "setting": "[5]; [13]", "value": 0},
      {"measurement": "Plant response rating, Nutsedge, Yellow", "setting": "[5]; [14]", "value": 0},
      {"measurement": "Plant response rating, Nutsedge, Yellow", "setting": "[5]; [15]", "value": 0},
      {"measurement": "Plant response rating, Nutsedge, Yellow", "setting": "[5]; [16]", "value": 0},
      {"measurement": "Nutsedge, Yellow plant response rating", "setting": "[5]; Preemergence, scale 0 to 100", "value": 0},
      {"measurement": "Goosegrass plant response rating", "setting": "[6]; postemergence, 0-100 scale", "value": 65},
      {"measurement": "Plant response rating, Goosegrass", "setting": "[6]; [11]", "value": 75},
      {"measurement": "Plant response rating, Goosegrass", "setting": "[6]; [12]", "value": 80},
      {"measurement": "Plant response rating, Goosegrass", "setting": "[6]; [13]", "value": 90},
      {"measurement": "Plant response rating, Goosegrass", "setting": "[6]; [14]", "value": 100},
      {"measurement": "Plant response rating, Goosegrass", "setting": "[6]; [15]", "value": 100},
      {"measurement": "Plant response rating, Goosegrass", "setting": "[6]; [16]", "value": 100},
      {"measurement": "Goosegrass plant response rating", "setting": "[6]; Preemergence, scale 0 to 100", "value": 80},
      {"measurement": "Kochia plant response rating", "setting": "kochia (Kochia scoparia); [19]", "value": 0},
      {"measurement": "Plant response rating, Kochia", "setting": "kochia (Kochia scoparia); 16 g ai/ha, scale 0 to 100", "value": 0},
      {"measurement": "Plant response rating, Kochia", "setting": "kochia (Kochia scoparia); 31 g ai/ha, scale 0 to 100, 0 no effect, 100 complete control", "value": 0},
      {"measurement": "Plant response rating, Kochia", "setting": "kochia (Kochia scoparia); 62 g ai/ha, scale 0 to 100, 0 no effect, 100 complete control", "value": 0},
      {"measurement": "Cupgrass, Woolly plant response rating", "setting": "[7]; postemergence, 0-100 scale", "value": 50},
      {"measurement": "Plant response rating, Cupgrass, Woolly", "setting": "[7]; [11]", "value": 55},
      {"measurement": "Plant response rating, Cupgrass, Woolly", "setting": "[7]; [12]", "value": 95},
      {"measurement": "Plant response rating, Cupgrass, Woolly", "setting": "[7]; [13]", "value": 95},
      {"measurement": "Plant response rating, Cupgrass, Woolly", "setting": "[7]; [14]", "value": 30},
      {"measurement": "Plant response rating, Cupgrass, Woolly", "setting": "[7]; [15]", "value": 98},
      {"measurement": "Plant response rating, Cupgrass, Woolly", "setting": "[7]; [16]", "value": 98},
      {"measurement": "Cupgrass, Woolly plant response rating", "setting": "[7]; Preemergence, scale 0 to 100", "value": 0},
      {"measurement": "Cocklebur plant response rating", "setting": "[8]; postemergence, 0-100 scale", "value": 0},
      {"measurement": "Plant response rating, Cocklebur", "setting": "[8]; [11]", "value": 0},
      {"measurement": "Plant response rating, Cocklebur", "setting": "[8]; [12]", "value": 0},
      {"measurement": "Plant response rating, Cocklebur", "setting": "[8]; [13]", "value": 0},
      {"measurement": "Plant response rating, Cocklebur", "setting": "[8]; [14]", "value": 0},
      {"measurement": "Plant response rating, Cocklebur", "setting": "[8]; [15]", "value": 0},
      {"measurement": "Plant response rating, Cocklebur", "setting": "[8]; [16]", "value": 0},
      {"measurement": "Cocklebur plant response rating", "setting": "[8]; Preemergence, scale 0 to 100", "value": 0},
      {"measurement": "Ragweed plant response rating", "setting": "[9]; postemergence, 0-100 scale", "value": 0},
      {"measurement": "Plant response rating, Ragweed", "setting": "[9]; [11]", "value": 0},
      {"measurement": "Plant response rating, Ragweed", "setting": "[9]; [12]", "value": 0},
      {"measurement": "Plant response rating, Ragweed", "setting": "[9]; [13]", "value": 0},
      {"measurement": "Plant response rating, Ragweed", "setting": "[9]; [14]", "value": 0},
      {"measurement": "Plant response rating, Ragweed", "setting": "[9]; [15]", "value": 0},
      {"measurement": "Plant response rating, Ragweed", "setting": "[9]; [16]", "value": 0},
      {"measurement": "Ragweed plant response rating", "setting": "[9]; Preemergence, scale 0 to 100", "value": 0},
      {"measurement": "Plant response rating, Russian Thistle", "setting": "[10]; [17]", "value": 0},
      {"measurement": "Plant response rating, Russian Thistle", "setting": "[10]; [18]", "value": 0},
      {"measurement": "Plant response rating, Russian Thistle", "setting": "[10]; 62 g ai/ha, scale 0 to 100", "value": 0},
      {"measurement": "Russian Thistle plant response rating", "setting": "[10]; 8 g ai/ha, scale 0 to 100", "value": 0}
    ]}
  ]
}
